Results as given in US12662451B2, “Chemical compounds and uses thereof” (GLAXOSMITHKLINE INTELLECTUAL PROPERTY (NO.4) LIMITED, priority 2023, dated 2026).

Legend:
[1] = biological target: T1, recombinant full-length WRN protein (1-1432) (Homo sapiens, UniProt Q14191); experiment: WRN unwinding activity, fluorogenic 384-well assay (Example A); assay type: biochemical; details: WRN unwinding activity, 4 hr; Table 2; read-out: 4 hr UNW pIC50 (converted)
T1 construct: recombinant full-length WRN protein (1-1432)
Method in brief: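 Read-out is end-point unwinding of a fluorophore/quencher duplex (ex 525, em 598 nm) after 60 min with 200 μM ATP and 12 nM DNA (2× stocks), EDTA stop. Compound first sat 4 h with 200 pM WRN (2× stock) in pH 8.0 Tris buffer; four-parameter fit gives pIC50.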

[2] = test system: SW48 human colorectal cancer cells (MSI-H cancer cells); experiment: SW48 cell viability, CellTiter-Glo, 120 hours (Example B); details: Homo sapiens, SW48, 120 h, read-out: SW48 pCC50, SW48 cell viability, 120 hours incubation (converted); Table 2

T1 sequence (Q14191 whole entry): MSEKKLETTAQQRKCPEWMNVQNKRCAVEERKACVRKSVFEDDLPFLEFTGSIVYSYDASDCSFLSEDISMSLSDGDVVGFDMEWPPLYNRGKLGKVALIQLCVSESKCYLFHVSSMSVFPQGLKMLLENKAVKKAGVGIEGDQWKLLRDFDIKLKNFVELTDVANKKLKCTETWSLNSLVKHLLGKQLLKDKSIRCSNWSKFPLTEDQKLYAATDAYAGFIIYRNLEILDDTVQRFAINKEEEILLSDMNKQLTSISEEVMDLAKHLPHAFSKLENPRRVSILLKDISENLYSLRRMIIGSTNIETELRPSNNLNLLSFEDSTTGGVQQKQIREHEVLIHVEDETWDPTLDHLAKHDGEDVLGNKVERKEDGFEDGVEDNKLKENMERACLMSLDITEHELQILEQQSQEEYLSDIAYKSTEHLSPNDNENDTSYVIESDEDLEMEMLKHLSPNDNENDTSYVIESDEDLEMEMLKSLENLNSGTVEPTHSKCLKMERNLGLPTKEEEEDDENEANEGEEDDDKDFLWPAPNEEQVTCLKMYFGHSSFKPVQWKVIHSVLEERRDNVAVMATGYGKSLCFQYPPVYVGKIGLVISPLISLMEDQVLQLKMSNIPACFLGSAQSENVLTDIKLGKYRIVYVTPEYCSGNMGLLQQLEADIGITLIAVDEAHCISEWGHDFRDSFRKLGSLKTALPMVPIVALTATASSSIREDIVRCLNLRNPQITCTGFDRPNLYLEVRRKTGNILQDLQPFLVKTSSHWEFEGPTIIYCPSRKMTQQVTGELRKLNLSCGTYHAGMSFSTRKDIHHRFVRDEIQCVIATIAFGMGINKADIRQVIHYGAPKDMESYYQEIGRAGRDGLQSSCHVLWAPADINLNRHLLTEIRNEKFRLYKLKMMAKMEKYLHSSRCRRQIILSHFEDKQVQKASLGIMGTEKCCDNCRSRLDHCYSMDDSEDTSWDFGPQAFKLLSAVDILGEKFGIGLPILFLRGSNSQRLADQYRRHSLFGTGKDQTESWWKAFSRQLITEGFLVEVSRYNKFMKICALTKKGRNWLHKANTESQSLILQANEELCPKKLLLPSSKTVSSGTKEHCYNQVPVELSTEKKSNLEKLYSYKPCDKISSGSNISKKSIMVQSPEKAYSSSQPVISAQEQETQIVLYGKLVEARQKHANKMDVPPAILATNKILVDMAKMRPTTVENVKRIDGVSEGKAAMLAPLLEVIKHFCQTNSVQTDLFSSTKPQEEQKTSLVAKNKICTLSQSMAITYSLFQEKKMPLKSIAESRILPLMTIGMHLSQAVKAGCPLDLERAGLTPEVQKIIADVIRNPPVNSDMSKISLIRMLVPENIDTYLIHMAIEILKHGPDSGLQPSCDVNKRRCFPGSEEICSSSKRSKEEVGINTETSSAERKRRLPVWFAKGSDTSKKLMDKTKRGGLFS

IC50 [1] [nM] | SMILES | CC50 [2] [nM]
6.31 | CCO[C@@H]1CC[C@@H](C(=O)Nc2ccc(C(F)(F)F)cc2F)[C@H](C(=O)O)[C@H]1c1ccc(N(C)S(=O)(=O)c2ccc3c(c2)nc(C)n3C)cc1 (racemic) [Example 371, rac-(1R,2S,3R,6R)-3-ethoxy-6-((2-fluoro-4-(trifluoromethyl)phenyl)carbamoyl)-2-(4-((N,1,2-trimethyl-1H-benzo[d]imidazole)-5-sulfonamido)phenyl)cyclohexane-1-carboxylic acid] | 1000
631 | Cc1nc2cc(S(=O)(=O)N(C)c3ccc([C@@H]4C[C@H](OC(F)F)C[C@H](C(=O)Nc5ccc(C(F)(F)F)cc5F)[C@H]4C(=O)O)cc3)ccc2n1C (stereo in doubt) [Example 283, rel-(1R,2R,4R,6S)-4-(difluoromethoxy)-2-((2-fluoro-4-(trifluoromethyl)phenyl)carbamoyl)-6-(4-((N,1,2-trimethyl-1H-benzo[d]imidazole)-5-sulfonamido)phenyl)cyclohexane-1-carboxylic acid] | 20000
12.6 | Cc1nc2cc(S(=O)(=O)N(C)c3ccc([C@H]4C[C@@](C)(O)C[C@@H](C(=O)Nc5ccc(C(F)(F)F)cc5F)[C@@H]4C(=O)O)cc3)ccc2n1C (racemic) [Example 356, rac-(1R,2R,4R,6S)-2-((2-fluoro-4-(trifluoromethyl)phenyl)carbamoyl)-4-hydroxy-4-methyl-6-(4-((N,1,2-trimethyl-1H-benzo[d]imidazole)-5-sulfonamido)phenyl)cyclohexane-1-carboxylic acid] | 1260
1.58 | [2H]C([2H])([2H])O[C@@H]1C[C@H](C(=O)Nc2ccc(C(F)(F)F)cc2F)[C@@H](C(=O)O)[C@H](c2ccc(N(C)S(=O)(=O)c3ccc4c(c3)nc(C)n4C)cc2)C1 (relative stereo) [Example 149, rel-(1R,2R,4R,6S)-2-((2-fluoro-4-(trifluoromethyl)phenyl)carbamoyl)-4-methoxy-6-(4-((N,1,2-trimethyl-1H-benzo[d]imidazole)-5-sulfonamido)phenyl)cyclohexane-1-carboxylic acid] | 200
20 | Cc1nc2cc(S(=O)(=O)N(C)c3ccc([C@H]4CCC[C@@H](C(=O)NC56CC(CC(F)(F)F)(C5)C6)[C@@H]4C(=O)O)cc3)ccc2n1C [Example 174, (1R,2R,6S)-2-((3-(2,2,2-trifluoroethyl)bicyclo[1.1.1]pentan-1-yl)carbamoyl)-6-(4-((N,1,2-trimethyl-1H-benzo[d]imidazole)-5-sulfonamido)phenyl)cyclohexane-1-carboxylic acid] | 10000
1.58 | Cc1nc2cc(S(=O)(=O)N(C)c3ccc([C@H]4C[C@@H](N5CCCCC5)C[C@@H](C(=O)Nc5ccc(C(F)(F)F)cc5F)[C@@H]4C(=O)O)cc3)ccc2n1C (relative stereo) [Example 348, rel-(1R,2R,4R,6S)-2-((2-fluoro-4-(trifluoromethyl)phenyl)carbamoyl)-4-(piperidin-1-yl)-6-(4-((N,1,2-trimethyl-1H-benzo[d]imidazole)-5-sulfonamido)phenyl)cyclohexane-1-carboxylic acid] | 398
50.1 | Cc1nc2cc(S(=O)(=O)N(C)c3ccc([C@@H]4CCC[C@H](C(=O)Nc5ccc(C(F)(F)F)cc5F)[C@H]4C(=O)O)nc3)ccc2n1C (single isomer, unassigned) [Example 160] | 15800
39.8 | CN1CCC[C@@H](c2cccc(S(=O)(=O)N(C)c3ccc([C@H]4CCC[C@@H](COc5ccc(C(F)(F)F)cc5)[C@@H]4C(=O)O)cc3)c2)C1 (single isomer, unassigned) [Example 218, rel-(1R,2S,6R)-2-(4-((N-methyl-3-((R*)-1-methylpiperidin-3-yl)phenyl)sulfonamido)phenyl)-6-((4-(trifluoromethyl)phenoxy)methyl)cyclohexane-1-carboxylic acid] | 15800
316 | CCO[C@@H]1C[C@H](COc2ccc(C(F)(F)F)cc2)[C@@H](C(=O)O)[C@H](c2ccc(N(C)S(=O)(=O)c3ccc4c(c3)nc(C)n4C)cc2)C1 (single isomer, unassigned) [Example 220] | 15800
1.26 | Cc1nc2cc(S(=O)(=O)N(C)c3cnc([C@H]4CCC[C@@H](C(=O)Nc5ccc(C(F)(F)F)cc5F)[C@@H]4C(=O)O)cn3)ccc2n1C (single isomer, unassigned) [Example 164] | 2510
79.4 | Cc1nc2cc(S(=O)(=O)N(C)c3ccc([C@@H]4C[C@H](N5CCOCC5)C[C@H](C(=O)Nc5ccc(C(F)(F)F)cc5F)[C@H]4C(=O)O)cc3)ccc2n1C (relative stereo) [Example 338, rel-(1R,2R,4R,6S)-2-((2-fluoro-4-(trifluoromethyl)phenyl)carbamoyl)-4-morpholino-6-(4-((N,1,2-trimethyl-1H-benzo[d]imidazole)-5-sulfonamido)phenyl)cyclohexane-1-carboxylic acid] | 15800
79.4 | [2H]C([2H])([2H])O[C@@H]1C[C@H](c2ccc(N(C)S(=O)(=O)c3ccc4c(c3)nc(C)n4C)cc2)[C@@H](C(=O)O)[C@H](C(=O)Nc2ccc(C(F)(F)F)cc2F)C1 (single isomer, unassigned) [Example 147] | 12600

The remaining lines, values behind:

SMILES | IC50 [1] [nM] | CC50 [2] [nM]
Cc1nc2cc(S(=O)(=O)N(C)c3ccc([C@H]4CCC[C@@H](C(=O)Nc5ccc(C(F)(F)F)cc5F)[C@@H]4C(=O)O)cc3)ccc2n1C (racemic) [Example 81, rac-(1R,2R,6S)-2-((2-fluoro-4-(trifluoromethyl)phenyl)carbamoyl)-6-(4-((N,1,2-trimethyl-1H-benzo[d]imidazole)-5-sulfonamido)phenyl)cyclohexane-1-carboxylic acid] | 7.94 | 1260
CN(c1ccc([C@H]2CCC[C@@H](C(=O)Nc3ccc(C(F)(F)F)cc3F)[C@@H]2C(=O)O)cc1)S(=O)(=O)c1cccc(S(N)(=O)=O)c1 [Example 134, (1R,2R,6S)-2-((2-fluoro-4-(trifluoromethyl)phenyl)carbamoyl)-6-(4-((N-methyl-3-sulfamoylphenyl)sulfonamido)phenyl)cyclohexane-1-carboxylic acid] | 7.94 | 12600
Cc1nnc(-c2ccc([C@H]3CCC[C@@H](C(=O)Nc4ccc(C(F)(F)F)cc4F)[C@@H]3C(=O)O)cc2)s1 [Example 41, (1R,2R,6S)-2-((2-fluoro-4-(trifluoromethyl)phenyl)carbamoyl)-6-(4-(5-methyl-1,3,4-thiadiazol-2-yl)phenyl)cyclohexane-1-carboxylic acid] | 5.01 | 3980
O=C(O)[C@@H]1[C@@H](c2ccc(-c3cccc4c3COC4)cc2)CCC[C@H]1C(=O)Nc1ccc(C(F)(F)F)cc1F [Example 15, (1R,2S,6R)-2-(4-(1,3-dihydroisobenzofuran-4-yl)phenyl)-6-((2-fluoro-4-(trifluoromethyl)phenyl)carbamoyl)cyclohexane-1-carboxylic acid] | 158 | 20000
O=C(O)[C@@H]1[C@@H](c2ccc(-c3ccnnc3)cc2)CCC[C@H]1C(=O)Nc1ccc(C(F)(F)F)cc1F [Example 18, (1R,2R,6S)-2-((2-fluoro-4-(trifluoromethyl)phenyl)carbamoyl)-6-(4-(pyridazin-4-yl)phenyl)cyclohexane-1-carboxylic acid] | 5.01 | 12600
O=C(O)[C@@H]1[C@@H](c2ccc(-c3cccc4sccc34)cc2)CCC[C@H]1C(=O)Nc1ccc(C(F)(F)F)cc1F [Example 35, (1R,2S,6R)-2-(4-(benzo[b]thiophen-4-yl)phenyl)-6-((2-fluoro-4-(trifluoromethyl)phenyl)carbamoyl) cyclohexane-1-carboxylic acid] | 2000 | 6310
O=C(O)[C@@H]1[C@@H](c2ccc(-c3cccc4[nH]ncc34)cc2)CCC[C@H]1C(=O)Nc1ccc(C(F)(F)F)cc1F [Example 1, (1R,2S,6R)-2-(4-(1H-indazol-4-yl)phenyl)-6-((2-fluoro-4-(trifluoromethyl)phenyl)carbamoyl)cyclohexane-1-carboxylic acid] | 1000 | 10000
O=C(O)[C@@H]1[C@@H](c2ccc(-c3ccc(F)nn3)cc2)CCC[C@H]1C(=O)Nc1ccc(C(F)(F)F)cc1F [Example 37] | 2 | 2510
Cc1cc(C)c(S(=O)(=O)N(C)c2ccc([C@H]3CCC[C@@H](C(=O)Nc4ccc(C(F)(F)F)cc4F)[C@@H]3C(=O)O)cc2)c(C)c1 [Example 103, (1R,2R,6S)-2-((2-fluoro-4-(trifluoromethyl)phenyl)carbamoyl)-6-(4-((N,2,4,6-tetramethylphenyl)sulfonamido)phenyl)cyclohexane-1-carboxylic acid] | 1.58 | 12600
Cc1nc2cc(S(=O)(=O)N(C)c3ccc([C@H]4CCC[C@@H](C(=O)Nc5ccc(C(C)C)cc5)[C@@H]4C(=O)O)cc3)ccc2n1C (racemic) [Example 78, rac-(1R,2R,6S)-2-((4-isopropylphenyl)carbamoyl)-6-(4-((N,1,2-trimethyl-1H-benzo[d]imidazole)-5-sulfonamido)phenyl)cyclohexane-1-carboxylic acid] | 2 | 1000
O=C(O)[C@@H]1[C@@H](c2ccc(-c3cnoc3)cc2)CCC[C@H]1C(=O)Nc1ccc(C(F)(F)F)cc1F [Example 48, (1R,2R,6S)-2-((2-fluoro-4-(trifluoromethyl)phenyl)carbamoyl)-6-(4-(isoxazol-4-yl)phenyl)cyclohexane-1-carboxylic acid] | 15.8 | 5010
